Assay results reported in PubChem BioAssay (NCI).
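Abbreviation: GI50, concentration required for 50% inhibition of growth. The concentration for full growth arrest is given as TGI.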

Key:
Experiment in all cases: NCI-60 cell line screen, 384-well format
[1] = test system: UO-31 renal
[2] = test system: HL-60(TB) leukemia
[3] = test system: DU-145 prostate
[4] = test system: ACHN renal
[5] = test system: HCT-15 colon
[6] = test system: SF-295 CNS
[7] = test system: LOX IMVI melanoma
[8] = test system: T-47D breast
[9] = test system: UACC-257 melanoma
[10] = test system: SR leukemia
[11] = test system: MDA-MB-231 breast
[12] = test system: HOP-92 NSCLC
[13] = test system: OVCAR-8 ovarian

SMILES: COCCOc1cc(F)c2c(Nc3ccc(NC(=O)Cn4cc(C(C)C)nn4)cc3)ncnc2c1
- GI50 [1]: 72 µM
- TGI [1]: > 100 µM
- GI50 [2]: 17.3 µM
- TGI [2]: 37.9 µM
- GI50 [3]: 75 µM
- TGI [3]: > 100 µM
- GI50 [4]: > 100 µM
- TGI [4]: > 100 µM
- GI50 [5]: 24.9 µM
- TGI [5]: > 100 µM
- GI50 [6]: > 100 µM
- TGI [6]: > 100 µM
- GI50 [7]: 43.6 µM
- TGI [7]: > 100 µM
- GI50 [8]: 5.9 µM
- TGI [8]: > 100 µM
- GI50 [9]: 60.6 µM
- TGI [9]: > 100 µM
- GI50 [10]: 10.1 µM
- TGI [10]: 41.5 µM
- GI50 [11]: 30.5 µM
- TGI [11]: > 100 µM
- GI50 [12]: 30.7 µM
- TGI [12]: > 100 µM
- GI50 [13]: 26.7 µM
- TGI [13]: > 100 µM
